Measured values taken from patent US20090181950A1, “Histamine Receptor Antagonists Comprising an Azepin Core” (GLAXO GROUP LIMITED, priority 2006, published 2009).
Where a name gives a salt, the structure may show the parent alone.

Columns and labels:
human H1 receptor = target: T1, human H1 receptor (Homo sapiens, UniProt P35367); test: Histamine H1 functional antagonist assay (FLIPR): antagonist pA2; assay type: cell-based
T1 construct: expressed in transfected cells
Experimental: The human H1 receptor is cloned using known procedures described in the literature [Biochem. Biophys. Res. Commun., 201(2):894 (1994)]. Chinese hamster ovary (CHO) cells stably expressing the human H1 receptor are generated according to known procedures described in the literature [Br. J. Pharmacol., 117(6):1071 (1996)].
The histamine H1 receptor expressing CHO cells are seeded into non-coated black-walled clear bottom 96-well tissue culture plates as described above.
Following overnight culture, growth medium is removed from each well, washed with 200 μl phosphate buffered saline (PBS) and is replaced with 50 μl loading dye (250 μM Brilliant Black, 1 μM Fluo-4 diluted in Tyrodes buffer+probenecid (145 mM NaCl, 2.5 mM KCl, 10 mM HEPES, 10 mM D-glucose, 1.2 mM MgCl2, 1.5 mM CaCl2, 2.5 mM probenecid, pH adjusted to 7.40 with NaOH 1.0 M)). Cells are incubated for 45 min at 37° C. The loading buffer is removed and the cells are washed as above, and 90 μl of Tyrodes buffer+probenecid is added to each well. 10 μl of test compound, diluted to the required concentration in Tyrodes buffer+probenecid (or 10 μl Tyrodes buffer+probenecid as a control) is added to each well and the plate is incubated for 30 min at 37° C., 5% CO2.
The plates are then placed into a FLIPR™ (Molecular Devices, UK) to monitor cell fluorescence (λex=488 nm, λEM=540 nm) in the manner described in Sullivan et al., (In: Lambert DG (ed.), Calcium Signaling Protocols, New Jersey: Humana Press, 1999, 125-136) before and after the addition of 50 μl histamine over a concentration range of 1 mM-0.1 nM. The resultant concentration response curves are analysed by non-linear regression using a standard four parameter logistic equation to determine the histamine EC50, the concentration of histamine required to produce a response of 50% of the maximum response to histamine. The antagonist pA2 is calculated using the following standard equation: pA2=log(DR−1)−log[B] where DR=dose ratio, defined as EC50antagonist-treated/EC50control and [B]=concentration of antagonist.

[1] = CNS penetration by bolus administration; assay type: in vivo, male CD Sprague Dawley rats; conditions: 1 mg/kg intravenously, blood and brain at 5 min post-dose
Experimental: Compounds are dosed intravenously at a nominal dose level of 1 mg/kg to male CD Sprague Dawley rats. Compounds are formulated in 5% DMSO/45% PEG200/50% water. Blood samples are taken under terminal anaesthesia with isoflurane at 5 min post-dose and the brains are also removed for assessment of brain penetration. Blood samples are taken directly into heparinised tubes. Blood samples are prepared for analysis using protein precipitation and brain samples are prepared using extraction of drug from brain by homogenisation and subsequent protein precipitation. The concentration of parent drug in blood and brain extracts is determined by quantitative LC-MS/MS analysis using compound-specific mass transitions.

T1 sequence (P35367 whole entry): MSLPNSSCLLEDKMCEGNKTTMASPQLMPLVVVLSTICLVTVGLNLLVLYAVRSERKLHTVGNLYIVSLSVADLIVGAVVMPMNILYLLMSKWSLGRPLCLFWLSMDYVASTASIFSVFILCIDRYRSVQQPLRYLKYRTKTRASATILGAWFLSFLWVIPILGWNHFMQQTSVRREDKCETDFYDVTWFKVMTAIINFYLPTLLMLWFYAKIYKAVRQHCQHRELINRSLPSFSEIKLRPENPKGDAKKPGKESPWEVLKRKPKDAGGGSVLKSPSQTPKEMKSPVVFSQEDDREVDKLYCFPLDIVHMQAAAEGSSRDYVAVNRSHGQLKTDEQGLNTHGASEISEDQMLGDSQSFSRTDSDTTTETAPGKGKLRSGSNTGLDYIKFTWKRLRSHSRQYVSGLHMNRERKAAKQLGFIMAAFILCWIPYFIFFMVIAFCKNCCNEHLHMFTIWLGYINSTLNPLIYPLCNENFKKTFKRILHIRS

SMILES | Kb (human H1 receptor) | CNS penetration [1]
O=C(O)CCc1ccc2cc(Cc3ccccc3)cc(N3CCN(CCc4ccc(OCCCN5CCCCCC5)cc4)CC3)c2n1 [Example 1, 3-[8-{4-[2-(4-{[3-(Hexahydro-1H-azepin-1-yl)propyl]oxy}phenyl)ethyl]-1-piperazinyl}-6-(phenylmethyl)-2-quinolinyl]propanoic Acid, Formate Salt] | < 10 nM | low CNS penetration
CCc1cc(N2CCN(CCc3ccc(OCCCN4CCCCCC4)cc3)CC2)c2nc(CCC(=O)O)ccc2c1 [Example 2, 3-(6-Ethyl-8-{4-[2-(4-{[3-(hexahydro-1H-azepin-1-yl)propyl]oxy}phenyl)ethyl]-1-piperazinyl}-2-quinolinyl)propanoic Acid, Formate Salt] | < 10 nM | low CNS penetration
O=C(O)CCc1ccc2cccc(N3CCN(CCc4ccc(OCCCN5CCCCCC5)cc4)CC3)c2n1 [Example 3, 3-(8-{4-[2-(4-{[3-(Hexahydro-1H-azepin-1-yl)propyl]oxy}phenyl)ethyl]-1-piperazinyl}-2-quinolinyl)propanoic Acid, Formic Acid (1:2)] | < 10 nM | low CNS penetration
O=C(O)CCc1cnc2c(N3CCN(CCc4ccc(OCCCN5CCCCCC5)cc4)CC3)cccc2c1 [Example 5, 3-(8-{4-[2-(4-{[3-(hexahydro-1H-azepin-1-yl)propyl]oxy}phenyl)ethyl]-1-piperazinyl}-3-quinolinyl)propanoic Acid, Formic Acid Salt] | < 100 nM | –
CCCCc1cc(N2CCN(CCc3ccc(OCCCN4CCCCCC4)cc3)CC2)c2nc(CCC(=O)O)ccc2c1 [Example 6, 3-(6-Butyl-8-{4-[2-(4-{[3-(hexahydro-1H-azepin-1-yl)propyl]oxy}phenyl)ethyl]-1-piperazinyl}-2-quinolinyl)propanoic Acid, Formate Salt] | < 10 nM | –
